ChEMBL document CHEMBL4819128, “Discovery of indoline derivatives as anticancer agents via inhibition of tubulin polymerization” (Bioorg Med Chem Lett, 2021)
The source made the active and inactive calls. No cut-off for these calls is given here.

How the values were obtained:
MGC-803 = assay: Antiproliferative activity against human MGC-803 cells incubated for 48 hrs by CCK8 assay; type: functional, cell-based; conditions: MGC-803, 48 h
Tubulin (Homo sapiens) [1] = biological target: T1, Tubulin (Homo sapiens) (UniProt P68371+Q9H4B7+P0DPH7+P68366+Q13509+Q71U36+P04350+Q3ZCM7+P07437+P68363+Q9BQE3+Q6PEY2+Q13885+Q9BVA1+Q9BUF5); assay: Inhibition of tubulin polymerization in human KYSE-30 cells by immunofluorescence assay; type: cell-based
[2] = biological target: Tubulin beta (Homo sapiens) (UniProt P68371+Q9H4B7+Q13509+P04350+Q3ZCM7+P07437+Q13885+Q9BVA1+Q9BUF5+A6NNZ2); assay: Binding affinity to beta-tubulin colchicine binding site in human KYSE-30 cells assessed as inhibition of tubulin-EBI adduct formation by EBI addition by Western blotting analysis; type: cell-based
KYSE-450 [3] = assay: Inhibition of colony formation in human KYSE-450 cells at 0.188 to 0.313 uM after 7 days by crystal violet staining based assay; type: functional, cell-based; conditions: dose 0.188-0.313 µM, time 7.0 day
Tubulin (Homo sapiens) [4] = biological target: T1, Tubulin (Homo sapiens); assay: Inhibition of tubulin polymerization in human KYSE-30 cells assessed as reduction in cell viability; type: cell-based
Tubulin (Homo sapiens) [5] = biological target: T1, Tubulin (Homo sapiens); assay: Inhibition of tubulin polymerization in human KYSE-30 cells at 1.25 uM by immunofluorescence assay; type: cell-based
Tubulin (Homo sapiens) [6] = biological target: T1, Tubulin (Homo sapiens); assay: […] of tubulin polymerization in human KYSE-450 cells assessed as inhibition of cell growth after 48 hrs relative to control; type: cell-based
KYSE-450 [7] = assay: Induction of cell morphological changes in human KYSE-450 cells measured after 48 hrs; type: functional, cell-based
Tubulin (Homo sapiens) [8] = biological target: T1, Tubulin (Homo sapiens); assay: Inhibition of tubulin polymerization in human KYSE-450 cells assessed as reduction in cell viability upto 48 hrs; type: cell-based; conditions: time hrs <=48, TDE = time-dependent effect

IC50 (MGC-803)	inhibition (Tubulin (Homo sapiens) [1])	Activity [2]	inhibition (Tubulin (Homo sapiens) [5])	Activity (Tubulin (Homo sapiens) [6])	Compound	inhibition (KYSE-450 [3])	inhibition (Tubulin (Homo sapiens) [4])	Activity (KYSE-450 [7])	inhibition (Tubulin (Homo sapiens) [8])
32.8 µM	–	–	–	–	O=C(Cc1ccccc1)N1CCc2cc(Br)ccc21	–	–	–	–
–	Dose-Dependent Effect	Active	Active	Dose-Dependent Effect	COc1cc(C(=O)N2CCc3cc(Br)ccc32)cc(OC)c1OC	Active	Dose-Dependent Effect	Active	Tde
